Results published in ChEMBL document CHEMBL1127111, “Synthesis of non reducible inhibitors for trypanothione reductase from Trypanosoma cruzi” (Bioorg Med Chem Lett, 1993).
The source made the active and inactive calls. No cut-off for these calls is given here.

Target: Trypanothione reductase (Trypanosoma cruzi, UniProt P28593)
Assay: Compound was tested for inhibitory activity against recombinant Trypanothione reductase from Trypanosoma cruzi

Chain of Trypanothione reductase (P28593 whole entry): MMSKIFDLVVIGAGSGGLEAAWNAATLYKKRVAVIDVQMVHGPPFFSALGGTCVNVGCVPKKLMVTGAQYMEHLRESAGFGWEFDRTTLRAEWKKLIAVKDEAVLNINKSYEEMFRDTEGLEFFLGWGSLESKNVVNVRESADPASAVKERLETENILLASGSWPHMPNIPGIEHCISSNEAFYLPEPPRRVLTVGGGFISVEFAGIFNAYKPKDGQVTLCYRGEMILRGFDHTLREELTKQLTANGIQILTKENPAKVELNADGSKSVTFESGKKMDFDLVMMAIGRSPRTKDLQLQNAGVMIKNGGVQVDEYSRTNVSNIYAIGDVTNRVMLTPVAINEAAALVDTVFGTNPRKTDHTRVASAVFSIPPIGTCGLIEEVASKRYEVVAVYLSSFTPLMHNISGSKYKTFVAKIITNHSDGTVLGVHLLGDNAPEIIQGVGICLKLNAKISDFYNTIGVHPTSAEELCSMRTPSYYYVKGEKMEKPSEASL

SMILES | Ki [µM]
CN(C)CCCNC(=O)CNC(=O)C(CSCC(NC(=O)OCc1ccccc1)C(=O)NCC(=O)NCCCN(C)C)NC(=O)OCc1ccccc1 (stereo unspecified) | 92
CN(C)CCCNC(=O)CNC(=O)C(CCSCC(NC(=O)OCc1ccccc1)C(=O)NCC(=O)NCCCN(C)C)NC(=O)OCc1ccccc1 (stereo unspecified) | 43
CN(C)CCCNC(=O)CNC(=O)C(CSCSCC(NC(=O)OCc1ccccc1)C(=O)NCC(=O)NCCCN(C)C)NC(=O)OCc1ccccc1 (stereo unspecified) | 31

System: Glutathione reductase (Bos taurus)
Assay: Compound was tested for inhibitory activity against glutathione reductase from bovine intestinal mucosa; NI means no inhibition

SMILES | Activity
CN(C)CCCNC(=O)CNC(=O)C(CSCC(NC(=O)OCc1ccccc1)C(=O)NCC(=O)NCCCN(C)C)NC(=O)OCc1ccccc1 (stereo unspecified) | inactive
CN(C)CCCNC(=O)CNC(=O)C(CCSCC(NC(=O)OCc1ccccc1)C(=O)NCC(=O)NCCCN(C)C)NC(=O)OCc1ccccc1 (stereo unspecified) | inactive
CN(C)CCCNC(=O)CNC(=O)C(CSCSCC(NC(=O)OCc1ccccc1)C(=O)NCC(=O)NCCCN(C)C)NC(=O)OCc1ccccc1 (stereo unspecified) | inactive
